Laboratory results as given in US4837342A, “Prostacyclin analogue, and blood circulation improving agent and anti-ulcer composition containing it as active ingredient” (Sagami Chemical Research Center, priority 1986, dated 1989).
Several values for one entry are separate records, joined by “and”; a condition that tells them apart may be missing. Identical values can stand only once.

How the values were obtained:
Indomethacine ulcer = Indomethacine ulcer inhibiting activity; format: in vivo, Male wister rats; details: rat; oral administration of 60 μg/kg twice
Text: Indomethacine ulcer inhibiting activity
Male wister rats having a weight of from 210 to 270 g were used. The rats were starved in the same manner as in Test Example 6. […] Three hours after the indomethacine administration, the test compound or PGE2 was again orally administered in the same amount. Six hours after the first administration of indomethacine, each rat was killed by cervical bertebral luxation. The stomach was taken out and fixed, and the ulcer index was obtained, in the same manner as in Test Example 6.
The indomethacine ulcer inhibiting activity of a test compound was represented by the inhibiting percentage (i.e. the inhibiting percentage of the ulcer index of the treated group to the ulcer index of the non-treated group). To the non-treated group, the solvent was administered.

[1] = system: Blood platelet (ADP agglutination); experiment: Blood platelet agglutination inhibiting activity (ADP-induced), washed rabbit platelet suspension; format: cell-based, rabbit (Japanese white male rabbits); details: for IC50: Oryctolagus cuniculus, Platelet, ADP 10 μM, concentration suppressing agglutination to 50%, read-out: Platelet agglutination inhibiting activity ED50, ADP agglutination; for Activity ratio, platelet agglutination inhibiting activity, ADP agglutination: relative to prostacyclin = 1
Description: (§1) Blood platelet aggutination inhibiting activity
(§2) Japanese white male rabbits having a weight of from 2.0 to 2.5 kg were used.
(§3) Under anesthesia with sodium Pentobarbital, blood was sampled from the carotid artery, and mixed with a 1/7 volume of an anticoagulant citric acid dextrose solution. Then, the mixture was subjected to centrifugal separation at 140×g for 15 minutes, whereupon the supernatant (platelet rich plasma:PRP) was obtained. PRP was subjected to centrifugal separation at 1,300×g for 7 minutes. The blood platelet pellets thus obtained were washed with a HEPES buffer solution (pH 6.5) for washing blood platelets, and subjected to centrifugal separation at 1,300×g for 7 minutes. The blood platelet pellets washed twice under such condition, were suspended in a suspending liquid (a buffer solution for washing blood platelets, which contains 0.1% of human fibrinogen, 1.8 mM of CaCl2 and 1.2 mM of MgCl2) to obtain a blood platelet suspension having a concentration of from 5×10^8 to 8×10^8 platelets/ml.
(§4) The platelet agglutination ability was measured by means of an agglutination meter. To 380 μl of the platelet suspension, 10 μl of a test compound or a solvent as the control, was added. Three minutes later, 10 μl of a platelet agglutinating substance (10 μM of ADP or 1 μg/ml of collagen, as the final concentration) was added thereto to induce agglutination.
(§5) The blood platelet agglutination inhibiting activity of each test compound was represented by ED50 (i.e. the concentration of the test compound where the platelet agglutination is suppressed to 50%).

ulcer = experiment: Anti-ulcer activity (general statement); format: in vivo, animals; details: compared with typical PG such as PGE2
Text: On the basis of this discovery, a further research has been made for the application to the prevention and treatment of digestive organ ulcers, and have accomplished the present invention.

vertebral artery = experiment: Blood flow-increasing activity in the vertebral artery, anesthetized dog; format: in vivo, crossbred adult dog; details: for ED50: Canis lupus familiaris, papaverine hydrochloride 100 μg/kg = 100%; for Activity ratio, blood flow-increasing activity in vertebral artery: relative to prostacyclin = 1
Text: Blood flow-increasing activity in the vertebral artery
A made or female crossbred adult dog having a weight of from 8 to 13 kg was anesthetized by intravenous administration of sodium Pentobarbital and subjected to thoractomy along the mediam line under artificial respiration to expose the left vertebral artery. Under sodium peparin treatment, a polyethylene cannula was inserted into the vertebral artery, and a blood flow-measuring probe was attached to its other end, to which a blood circulation tube led from the left femoral artery was connected, whereby the blood flow in the vertebral artery was measured by using an electromagnetic flow meter. The test compound was injected into the vertebral artery by near arterial injection, and the blood flow-increasingactivity in the vertebral artery was represented by ED50 (i.e. the dose of a test compound at which the blood flow increases by 50%, as evaluated on the basis that the blood flow increase (representing substantially the maximum reaction) by the administration of 100 μg/kg papaverine hydrochloride into the vertebral artery, is evaluated to be 100%).

femoral artery = experiment: Blood flow-increasing activity in the femoral artery, anesthetized dog; format: in vivo, crossbred adult dog; details: for ED50: Canis lupus familiaris, dog, near arterial injection, papaverine hydrochloride 100 μg/kg = 100%; for Activity ratio, blood flow-increasing activity in femoral artery: relative to prostacyclin = 1
Description: Blood flow-increasing activity in the femoral artery
A male or female crossbred adult dog having a weight of from 8 to 13 kg, was anesthetized by intravenous administration of sodium Pentobarbital. Then, a tracheal cannula was inserted, and artificial respiration was conducted. The blood flow in the femoral artery was measured by inserting the annula into the left femoral artery under sodium heparin treatment and providing a blood flow measuring probe at it other end, and by using an electromagnetic flow meter. The test compound was injected into the femoral artery by near arterial injection, and the blood flow-increasing activity in the femoral artery was represented by ED50 (i.e. the dose of a test compound at which the blood flow increases by 50%, as evaluated on the bais that the blood flow increase (representing substantially the maximum reaction) by the administration of 100 μg/kg of papaveline hydrochloride into the femoral artery, is evaluted to be 100%).

Hydrochloric acid ulcer = Hydrochloric acid ulcer inhibiting activity; format: in vivo, wister rats; details: rat; oral administration of 30 μg/kg; 0.6N hydrochloric acid; read-out: Hydrochloric acid ulcer inhibiting activity, Inhibiting rate
Description: Hydrochloric acid ulcer inhibiting activity
Male wister […] having a weight of from 190 to 240 g were used. The rats were starved in the same manner as in Test Example 6, and the test compounds and PGE2 were, respectively, orally administered in an amount of 30 μg/kg, and 30 minutes later, 1 ml of 0.6N hydrochloric acid was orally administered. Thirty minutes after the hydrochloric acid administration, each rat was killed by cervical vertebral luxation. Then, the stomach was taken out and fixed, and the ulcer index was obtained, in the same manner as in Test Example 6. The hydrochloric acid ulcer inhibiting activity of a test compound was represented by the inhibiting percentage (i.e. the percentage of the ulcer index of the treated group to the ulcer index of the non-treated group). To the non-treated group, the solvent was administered.

diastolic blood pressure = experiment: Hypotensive activity, anesthetized dog; format: in vivo, crossbred adult dog; details: for Activity ratio, hypotensive activity: relative to prostacyclin = 1; for Hypotensive activity, blood pressure decrease: at 10 μg/kg i.v.
Description: A male or female crossbred adult dog having a weight of from 9 to 14 kg was anesthetized by intraveous administration of sodium Pentobarbital. Then, the left carotid was exposed under artificial respiration, and the blood pressure was measured by using an electric blood pressure meter. […]

coronary artery = experiment: Blood flow-increasing activity in the coronary artery, anesthetized dog; format: in vivo, crossbred adult dog; details: for ED50: Canis lupus familiaris, dog, near arterial injection, reactive hyperemia = 100%; for Activity ratio, blood flow-increasing activity in coronary artery: relative to prostacyclin = 1
Description: Blood flow-increasing activity in the coronary artery
A crossbred adult dog having a weight of from 9 to 15 kg was anesthetized with sodium Pentobarbital and subjected to thoractomy under artificial respiration. After pericardiectomy, the frontal descending branch of the left coronary artery was separated from the surrounding tissues, and a blood flow-measuring probe was attached thereto under sodium heparin treatment. The coronary blood flow was measured by using an electromagnetic flow meter. The test compound was injected into the coronary artery by near arterial injection, and the blood flow-increasing activity in the coronay artery was represented by ED50 (i.e. the dose of a test compound at which the blood flow increases by 50%, as evaluated on the basis that the blood flow increase by the reactive hyperemia caused by releasing the blood flow of the coronary artery after blocking it for 15 seconds, is evaluated to be 100%).

Ethanol ulcer = Ethanol ulcer inhibiting activity; format: in vivo, Male wister rats; details: rat; for ED50: po, P.O., 30 minutes before 99.5% ethanol
Description: Ethanol ulcer inhibiting activity
Male wister rats having a weight of from 170 to 270 g were put into individual cages and starved for 24 hours. During this starvation period, the rats were allowed to drink water freely. A test compound or PGE2 as a comparative compound was orally administered in an amount of 3, 10 or 30 μg/kg, and 30 minutes later, 1 ml of 99.5% ethanol was orally administered to each rat. One hour after the ethanol administration, each rat was filled by cervical vertebral luxation, and the stomach was taken out. A 1% formaline solution was injected into the stomach in an amount of about 8 ml, and the stomach was fixed in the formaline solution for 30 minutes. After the fixing, the stomach was severed along the greater curvature, and the mucous membrane surface of the stomach was gently washed with flowing water. Then, the total length of damages appearing on the gastric glandular portion was obtained and used as the ulcer index.
The ethanol ulcer inhibiting activity of a test compound was represented by ED50 (i.e. the dose of the test compound at which the ulcer was inhibited by 50% relative to the ulcer index of the non-treated group). To the non-treated group, the solvent was administered.

[2] = system: Blood platelet (Collagen agglutination); experiment: Blood platelet agglutination inhibiting activity (collagen-induced), washed rabbit platelet suspension; format: cell-based, rabbit (Japanese white male rabbits); details: for Activity ratio, platelet agglutination inhibiting activity, Collagen agglutination: relative to prostacyclin = 1; for IC50: Oryctolagus cuniculus, Platelet, collagen 1 μg/ml, concentration suppressing agglutination to 50%, read-out: Platelet agglutination inhibiting activity ED50, Collagen agglutination
Description: as §1, §2, §3, §4, §5

[3] = system: blood flow of various organs; experiment: Blood flow increasing activity in various organs (general statement); details: in vivo

IC50 [1] [nM]	IC50 [2] [nM]	SMILES	Indomethacine ulcer inhibiting activity, Inhibiting rate (Indomethacine ulcer) [%]	Activity ratio, platelet agglutination inhibiting activity, ADP agglutination [1]	Anti-ulcer activity (in words) (ulcer)	ED50 (vertebral artery; dog, near arterial injection) [µg/kg]	Activity ratio, blood flow-increasing activity in vertebral artery (vertebral artery)	ED50 (femoral artery) [µg/kg]	Activity ratio, blood flow-increasing activity in femoral artery (femoral artery)	inhibition in vivo at 0.03 mg/kg (Hydrochloric acid ulcer) [%]	Activity ratio, hypotensive activity (diastolic blood pressure)	ED50 (coronary artery) [µg/kg]	Activity ratio, blood flow-increasing activity in coronary artery (coronary artery)	ED50 (Ethanol ulcer) [µg/kg]	Activity ratio, platelet agglutination inhibiting activity, Collagen agglutination [2]	Hypotensive activity, blood pressure decrease (diastolic blood pressure; dog) [mmHg]	Activity to increase the blood flow (in words) [3]	further results
8.7		CCC#CCC(C)[C@H](O)/C=C/[C@@H]1[C@H]2CCC(C=CCCC(=O)O)=C[C@H]2C[C@H]1O (stereo partly drawn) [(d), 3-(4-carboxy-1-butenyl)-7-exo-(3α-hydroxy-4,8-dimethyl-trans-1-octen-6-ynyl)-8-endo-hydroxy-cis-bicyclo[4,3,0]nona-2-ene]	73.5	1/3	comparable or superior to typical PG having anti-ulcer activities, such as PGE2	1.9	1/43	0.9	1/38	24.1	1/36	0.38	1/38	2.55				ED (50 mmHg) (diastolic blood pressure; Canis lupus familiaris, iv, dog, femoral vein, Table 1, read-out: Hypotensive activity ED50 (dose reducing diastolic blood pressure by 50 mmHg)): 8.7 µg/kg
23		CCC#CCC(C)[C@H](O)/C=C/[C@@H]1[C@H]2CCC(CCCCC(=O)O)=C[C@H]2C[C@H]1O (stereo partly drawn) [(f), 3-(4-carboxybutyl)-7-exo-(3α-hydroxy-4,8-dimethyl-trans-1-octen-6-ynyl)-8-endo-hydroxy-cis-bicyclo[4,3,0]nona-2-ene]	38.8	1/8	comparable or superior to typical PG having anti-ulcer activities, such as PGE2	0.57	1/13	0.56	1/23	20.5	1/77	1.75	1/269	2.92	1/8	33		
50	73	CCCCC[C@H](O)/C=C/[C@@H]1[C@H]2CCC(C=CCCC(=O)O)=C[C@H]2C[C@H]1O [(c), 3-(4-carboxy-1-butenyl)-7-exo-(3α-hydroxy-trans-1-octenyl)-8-endo-hydroxy-cis-bicyclo[4,3,0]nona-2-ene]		1/17				0.56	1/23	13.5	about 1/125 and 1/125	2.1	1/210		1/21	27.9	activity to increase the blood flow of various organs to a proper extent	Indomethacine ulcer inhibition (in words) (Indomethacine ulcer): Certain inhibition; Blood flow increase in vertebral artery (vertebral artery; dog, at 3 μg/kg, near arterial injection): 36.9%; Ethanol ulcer inhibition (Ethanol ulcer; oral administration of 30 μg/kg): 31.7%
77	44	CCC#CCC(C)[C@H](O)/C=C/[C@@H]1[C@H]2CCC(CCCC(=O)O)=C[C@H]2C[C@H]1O (stereo partly drawn) [(b), 3-(3-carboxypropyl)-7-exo-(3α-hydroxy-4,8-dimethyl-trans-1-octen-6-ynyl)-8-endo-hydroxy-cis-bicyclo[4,3,0]nona-2-ene]	99.4	1/27	comparable or superior to typical PG having anti-ulcer activities, such as PGE2	0.75	1/17	0.35	1/15	54.8	about 1/135	1.2	1/120	2.79	1/12	27.9	activity to increase the blood flow of the vertebral artery, coronary artery and femoral artery	
